Molecular target: T1, CLK4 (Homo sapiens, UniProt Q9HAZ1)
T1 construct: purchased Thermo Fisher Scientific (Life Technologies) SelectScreen
Test: SelectScreen LanthaScreen
Assay type: binding
Details: read-out: % displacement
Procedure, shortened: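 Percent values come from Thermo SelectScreen profiling of NU5455, combining activity and binding assays. CSF1R was run in Z'LYTE format at Km app ATP, and CAMK1 in Adapta format with ATP listed at 10.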

T1 sequence (Q9HAZ1 whole entry): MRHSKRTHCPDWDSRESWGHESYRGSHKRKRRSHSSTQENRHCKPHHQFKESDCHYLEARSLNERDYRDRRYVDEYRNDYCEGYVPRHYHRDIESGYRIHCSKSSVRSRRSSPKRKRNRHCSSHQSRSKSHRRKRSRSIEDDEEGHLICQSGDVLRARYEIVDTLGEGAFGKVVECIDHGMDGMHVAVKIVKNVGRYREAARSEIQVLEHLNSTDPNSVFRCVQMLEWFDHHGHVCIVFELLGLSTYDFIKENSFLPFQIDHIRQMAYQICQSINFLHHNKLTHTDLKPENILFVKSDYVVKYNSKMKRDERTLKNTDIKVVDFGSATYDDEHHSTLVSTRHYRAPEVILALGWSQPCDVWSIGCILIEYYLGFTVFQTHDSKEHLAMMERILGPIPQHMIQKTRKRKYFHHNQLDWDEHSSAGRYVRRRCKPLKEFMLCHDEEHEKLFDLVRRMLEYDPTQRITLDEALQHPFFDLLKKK

SMILES: CN(C(=O)CN1CCOCC1)c1ccc2sc3c(-c4cccc5c(=O)cc(N6CC7CCC(C6)O7)oc45)cccc3c2c1 [NU5455]
- inhibition at 1 µM: 1.4%
